Laboratory results from PubChem BioAssay (NCI).
“And” between values parts separate entries of the source, which are not always exact repeats. Equal entries are not always repeated.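 These data come from cells grown in 96-well plates and exposed to compound for 48 hours at five concentrations. Abbreviation: GI50, concentration required for 50% inhibition of growth. The concentration for full growth arrest is given as TGI.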

Tests used:
Experiment in all cases: NCI anticancer screen, dose series, 48 h
[1] = system: SR leukemia
[2] = system: SNB-75 CNS
[3] = system: M14 melanoma
[4] = system: OVCAR-4 ovarian
[5] = system: TK-10 renal
[6] = system: A549 NSCLC
[7] = system: RPMI-8226 leukemia
[8] = system: SF-539 CNS
[9] = system: PC-3 prostate
[10] = system: KM12 colon

| Compound | GI50 [1] | TGI [1] | GI50 [2] | TGI [2] | GI50 [3] | GI50 [4] | TGI [4] | GI50 [5] | TGI [5] | GI50 [6] | TGI [6] | GI50 [7] | TGI [7] | GI50 [8] | TGI [8] | GI50 [9] | TGI [9] | GI50 [10] | TGI [10] | TGI [3] |
| --- | --- | --- | --- | --- | --- | --- | --- | --- | --- | --- | --- | --- | --- | --- | --- | --- | --- | --- | --- | --- |
| Cc1c(Cl)cccc1NC(=O)c1sc2nc3c(cc2c1N)C(=O)CCC3 | 72.5 nM | > 100 µM | 38.5 nM | 20.9 µM | 65.5 nM | 569 nM | > 84.7 µM | 37.6 µM | > 100 µM | 61.9 nM | > 100 µM | 234 nM | > 55.4 µM | 35.3 nM | 0.19 µM | 51.7 nM | > 52.2 µM | 65.8 nM | > 100 µM |  |
| CSc1nnc(-c2cc3c([nH]c4ccccc43)c(-c3cccc(O)c3)n2)n1-c1ccc(C)cc1 | 2090 nM | > 100 µM | 1660 nM | 5.33 µM | 3830 nM | 2730 nM | 8.61 µM | 3.01 µM | 9.64 µM | 3790 nM | 24.6 µM | 5310 nM | > 100 µM | 2810 nM | 14.1 µM | 3580 nM | 23 µM | 3860 nM | > 100 µM | > 100 µM |
| O=C(NNc1ccccc1)c1ccc(Cl)c(Cl)c1 |  | > 100 µM |  | > 67.8 µM |  |  | > 100 µM |  | > 100 µM |  | > 100 µM |  | > 54.4 µM |  | 0.133 µM |  | > 100 µM |  | > 75.9 µM | > 100 µM |
| Cc1nn(Cc2ccccc2)cc1C(=O)Nc1sc2c(c1C(N)=O)CCC(=O)C2 | 1410 nM | 8.81 µM | 1740 nM | 6.81 µM | 3420 nM | 1470 nM | 3.45 µM | 3.33 µM | 26.4 µM | 4390 nM | > 100 µM | 1180 nM | 4.09 µM | 1360 nM | 3.02 µM | 752 nM | 5.14 µM | 1940 nM | 4.99 µM | 14.4 µM |
| Cc1ccc(NC(=S)C#N)c(C)c1 |  | > 100 µM |  | > 100 µM |  |  | > 100 µM |  | > 100 µM |  | > 100 µM |  | 76 µM |  | > 100 µM |  | > 100 µM |  | > 100 µM | > 100 µM |
| C[C@@H](CS[As](C)C)C(=O)N1CCC[C@H]1C(=O)O | 55.3 nM | 0.272 µM | 512 nM | 2.25 µM | 105 nM | 1300 nM |  | 0.268 µM | 1.11 µM | 1580 nM | > 100 µM | 26.2 nM | 0.0831 µM | 131 nM | 1.41 µM | 284 nM | 1.25 µM | 1900 nM | 12.5 µM | 0.829 µM |
| CC(=O)O[C@@H]1C2=C(C)C3(CC3)[C@@](C)(O)C(=O)C2=C[C@@]1(C)CO | 271 nM | > 100 µM | 217 nM | 1.38 µM | 340 nM | 674 nM | 4.44 µM | 2.6 µM | > 100 µM | 1050 nM | 24.2 µM | 372 nM | 3.14 µM | 1020 nM | 3.38 µM | 1020 nM | 12.3 µM | 1320 nM | 8.59 µM | 1.61 µM |
| c1cc(C2CCCCC2)ccc1-c1cnc2nonc2n1 | 348 nM |  | 528 nM | 1.71 µM | 499 nM | 856 nM | 2.28 µM | 1.28 µM | 2.79 µM | 2740 nM | 12.2 µM | 400 nM | 2.79 µM | 548 nM | 1.87 µM | 789 nM | 2.56 µM | 973 nM | 3.65 µM | 2.16 µM |
| C[C@@]1(C(=O)O)CCC[C@]2(C)C1CC[C@]13C[C@@](O)(CO)[C@](O)(CC[C@]12O)C3 (stereo partly specified) | > 100000 nM | > 100 µM | > 100000 nM | > 100 µM | > 100000 nM | > 100000 nM | > 100 µM | > 100 µM | > 100 µM | > 100000 nM | > 100 µM | > 100000 nM | > 100 µM | > 100000 nM | > 100 µM | > 100000 nM | > 100 µM | > 100000 nM | > 100 µM | > 100 µM |
| COc1c(-c2ccc3c(c2)OCO3)oc2cc(O)cc(O)c2c1=O |  | > 100 µM |  | 53.6 µM |  |  | 95 µM |  | > 100 µM |  | > 100 µM |  | > 100 µM |  | > 100 µM |  | > 100 µM |  | > 100 µM | > 100 µM |
| CCN(CC)S(=O)(=O)c1cccc(-c2ccc3c(NC(=O)C4CC4)n[nH]c3c2)c1 | 259 nM | > 6.25 µM | 1320 nM | > 6.25 µM | 1470 nM | 1610 nM | > 6.25 µM | 5.06 µM | > 6.25 µM | 2790 nM | > 6.25 µM | 1600 nM | > 6.25 µM | 1470 nM | 5.6 µM | 2110 nM | > 6.25 µM | 1080 nM | > 6.25 µM | > 6.25 µM |
| Cn1cc(C2=C(c3cc[nH]c3)C(=O)NC2=O)c2ccccc21 | 12000 nM | > 25 µM | 1960 nM | > 25 µM | > 25000 nM | > 25000 nM | > 25 µM | > 25 µM | > 25 µM | > 25000 nM | > 25 µM | > 25000 nM | > 25 µM | > 25000 nM | > 25 µM | > 25000 nM | > 25 µM | 25000 nM | > 25 µM | > 25 µM |
| O=C(CSC(c1ccccc1)c1ccccc1)N/N=C/c1ccccc1Cl | 9480 nM | 26.7 µM | 7600 nM | 30 µM | 36800 nM | 11300 nM | 77.2 µM | 14.5 µM | 65.3 µM | 13600 nM | > 57.3 µM | 8730 nM | > 40.6 µM | 29000 nM | > 90.2 µM | 14100 nM | 70.1 µM | 27100 nM | 88.8 µM | > 100 µM |
| O=C(N=Nc1c(Cl)c(O)c2ccccc2c1O)C(=O)Nc1cccc(C(F)(F)F)c1 | 3080 nM | 17.1 µM | 3060 nM | 15.5 µM | 1960 nM | 6030 nM | 26.9 µM | 14.2 µM | 27.4 µM | 3790 nM | 16.7 µM | 3490 nM | 15.6 µM | 3510 nM | 14.4 µM | 3000 nM | 16.2 µM | 5450 nM | 16.6 µM | 4.1 µM |
| CC(C)c1[nH]nc2c(NCc3ccc(-c4ccccn4)cc3)nc(SCCN)nc12 | 12.6 nM | 2.03 µM | 5.87 nM | 0.0331 µM and 0.0448 µM | 15.5 nM and 18.1 nM | 5.85 nM | 0.394 µM and 1.41 µM | 0.155 µM | 10.1 µM | 30.6 nM and 15.9 nM | 12.2 µM | 15.1 nM and 16.7 nM | 0.0847 µM and 0.0831 µM | 31.4 nM and 27.2 nM | 0.0979 µM and 0.0811 µM | 25.7 nM | 4.11 µM and 12.3 µM | 17.5 nM and 12.6 nM | 10.3 µM | 0.151 µM and 1.16 µM |
| COC(=O)c1c2c(c(C)[n+]([O-])c1C)C(=O)C(NCc1ccc(F)cc1)=CC2=O | 1700 nM | > 100 µM | 2230 nM | 5.96 µM | 1210 nM | 519 nM | 1.87 µM | 3.32 µM | 36.7 µM | 1790 nM | 5.66 µM | 2000 nM | 6.82 µM | 1720 nM | 3.15 µM | 1790 nM | > 100 µM | 1660 nM | 6.49 µM | 2.69 µM |
| Oc1ccc(Cl)cc1Sc1cc(Cl)ccc1O | 3530 nM | 51.6 µM and 12.2 µM | 2940 nM | 36.4 µM and 10.6 µM | 3830 nM | 3400 nM | 22.9 µM and 13.5 µM | 8.02 µM | 31.3 µM and 31.1 µM | 3910 nM | 58.6 µM and 13.7 µM | 1970 nM |  | 3140 nM | 37.2 µM and 11.2 µM | 2720 nM | 30.1 µM and 9.58 µM | 3260 nM | 31.4 µM and 9.18 µM | 26 µM and 12.7 µM |
| C=C1C(=O)O[C@H]2[C@H]1CC/C(COC(=O)CCCCCCCC(=O)OC/C1=C/CC[C@@]3(C)O[C@H]3[C@H]3OC(=O)C(=C)[C@@H]3CC1)=C\CC[C@@]1(C)O[C@@H]21 | 398 nM | 10.6 µM | 12300 nM | 35.9 µM | 1770 nM | 4580 nM | 20.1 µM | 2.94 µM | 7.03 µM | 11100 nM | 28.8 µM | 1310 nM | 6.46 µM | 1830 nM | 3.83 µM | 1960 nM | 4.62 µM | 1950 nM | 4.26 µM | 4.11 µM |
| C=C1C(=O)O[C@@H]2CC(CO)=C([C@@H](C)CCCO)[C@@H](OC(=O)/C(C)=C\C)[C@H]12 |  | 8.22 µM |  | > 100 µM |  |  | > 84.9 µM |  | 45.9 µM |  | > 71.9 µM |  | 31 µM |  | > 71.3 µM |  | 45.7 µM |  | 43.7 µM | > 81.4 µM |
